Experiment: Cytotoxicity against human PC3 cells assessed as inhibition of cell growth after 48 hrs by sulforhodamine B assay
Format: functional, cell-based
Settings: PC-3, 48 h

SMILES | IC50 [µM]
O=C1c2ccccc2C(=O)c2cc3oc(SCCc4ccccc4)nc3cc21 | > 30
O=C1c2ccccc2C(=O)c2cc3oc(SCCN4CCCCC4)nc3cc21 | 21.8
O=C(CN1CCCC1)Nc1cc2c(cc1O)C(=O)c1ccccc1C2=O | 26
CCN(CC)CC(=O)Nc1cc2c(cc1O)C(=O)c1ccccc1C2=O | 20.2
O=C1c2ccccc2C(=O)c2cc3oc(SCc4ccccc4F)nc3cc21 | > 30
O=C(CN1CCOCC1)Nc1cc2c(cc1O)C(=O)c1ccccc1C2=O | > 30
CCCSc1nc2cc3c(cc2o1)C(=O)c1ccccc1C3=O | > 30
O=C(CCCl)Nc1cc2c(cc1O)C(=O)c1ccccc1C2=O | 26.7
O=C(CN1CCCCC1)Nc1cc2c(cc1O)C(=O)c1ccccc1C2=O | 18.5
CSc1nc2cc3c(cc2o1)C(=O)c1ccccc1C3=O | > 30
O=C1COc2cc3c(cc2N1)C(=O)c1ccccc1C3=O | > 30
O=C1c2ccccc2C(=O)c2cc3oc(SCc4ccc([N+](=O)[O-])cc4)nc3cc21 | > 30

Reference: ChEMBL document CHEMBL3352029, “Ring fusion strategy for the synthesis of anthra[2,3-d]oxazole-2-thione-5,10-dione homologues as DNA topoisomerase inhibitors and as antitumor agents” (Eur J Med Chem, 2014)
